Reference: patent US8796259B2, “N3-heteroaryl substituted triazoles and N5-heteroaryl substituted triazoles useful as axl inhibitors” (Rigel Pharmaceuticals, Inc., priority 2006, dated 2014)

Target: T1, Axl (Homo sapiens, UniProt P30530)
T1 construct: endogenous in cells; host or cells: HeLa cells
T1 sequence (P30530 26-894): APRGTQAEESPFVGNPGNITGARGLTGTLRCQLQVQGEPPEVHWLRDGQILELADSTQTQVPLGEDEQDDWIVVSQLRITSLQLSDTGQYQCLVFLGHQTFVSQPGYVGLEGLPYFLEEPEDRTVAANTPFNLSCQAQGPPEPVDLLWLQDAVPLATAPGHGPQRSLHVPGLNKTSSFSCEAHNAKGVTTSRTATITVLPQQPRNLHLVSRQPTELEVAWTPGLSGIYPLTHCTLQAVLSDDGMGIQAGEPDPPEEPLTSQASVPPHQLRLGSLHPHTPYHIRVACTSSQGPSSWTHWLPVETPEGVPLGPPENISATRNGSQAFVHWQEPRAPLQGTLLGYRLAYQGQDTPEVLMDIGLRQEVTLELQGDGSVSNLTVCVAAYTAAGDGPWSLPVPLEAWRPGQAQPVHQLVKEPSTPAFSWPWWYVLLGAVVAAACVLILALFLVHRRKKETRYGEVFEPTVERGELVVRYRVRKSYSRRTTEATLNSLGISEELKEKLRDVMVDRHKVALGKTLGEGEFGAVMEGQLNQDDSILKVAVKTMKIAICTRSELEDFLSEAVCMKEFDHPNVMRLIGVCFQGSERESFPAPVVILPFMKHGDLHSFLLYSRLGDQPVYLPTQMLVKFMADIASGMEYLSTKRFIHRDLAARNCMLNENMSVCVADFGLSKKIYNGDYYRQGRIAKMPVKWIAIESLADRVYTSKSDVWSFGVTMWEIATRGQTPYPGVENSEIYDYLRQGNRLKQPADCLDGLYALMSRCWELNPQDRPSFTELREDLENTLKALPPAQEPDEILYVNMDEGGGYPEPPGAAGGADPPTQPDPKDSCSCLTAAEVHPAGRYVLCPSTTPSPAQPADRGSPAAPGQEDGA
Test: Phospho-Akt in-cell Western assay (inhibition of Axl activity, Axl-antibody cross-linking stimulation)
Format: cell-based
Conditions: Hela cells, phospho-Akt readout; compounds of formula (Ia), Table 1
How it was run: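 HeLa cells on poly-L-lysine were starved 24 h in 0.5% FCS/DMEM with 500 ng/mL Axl/Fc, pre-treated with compound 1 h at 37 °C, then stimulated 5 min by cross-linked mouse anti-Axl/biotin anti-mouse antibody clusters. After formaldehyde fixation, phospho-Akt was detected by rabbit anti-phospho-Akt and HRP secondary with chemiluminescence read-out.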

Compound | IC50 [nM]
COc1cc2ncnc(-n3nc(Nc4cnc(N5CCC(CN6CCCCC6)CC5)nc4)nc3N)c2cc1OC [compound 63, 1-(6,7-dimethoxy-quinazoline-4-yl)-N^3-(2-(4-piperidin-1-ylmethyl-piperidin-1-yl)pyrimidin-5-yl)-1H-1,2,4-triazole-3,5-diamine] | 1000 to 10000
Cc1csc2c(-n3nc(Nc4cnc5c(c4)C4CC(N6CCCC6)CC4C5)nc3N)nc(Cl)nc12 (stereo not drawn) [compound 64, 1-(2-chloro-7-methylthieno [3,2-d]pyrimidin-4-yl)-N^3-(6-(pyrrolidin-1-yl)-4b,5,6,7,7a,8-hexahydro-pentaleno[2,1-b]pyridin-3-yl)-1H-1,2,4-triazole-3,5-diamine] | < 1000
COc1cc2ncnc(-n3nc(Nc4ccc(C=CCN5CCC(N6CCN(C)CC6)CC5)nc4)nc3N)c2cc1OC [compound 65, 1-(6,7-dimethoxy-quinazoline-4-yl)-N^3-(6-(3-(4-(4-methyl-piperazin-1-yl)piperidin-1-yl)propenyl)pyridin-3-yl)-1H-1,2,4-triazole-3,5-diamine] | < 1000
Cc1csc2c(-n3nc(Nc4cnc5c(c4)CC(N4CCN(C)CC4)CC5)nc3N)nc(Cl)nc12 (stereo not drawn) [compound 66, 1-(2-chloro-7-methylthieno [3,2-d]pyrimidin-4-yl)-N^3-(6-(4-methyl-piperazin-1-yl)-5,6,7,8-tetrahydro-quinolin-3-yl)-1H-1,2,4-triazole-3,5-diamine] | < 1000
COc1cc2ncnc(-n3nc(Nc4ccc(C=CCN5CCC(N6CCCCC6)CC5)nc4)nc3N)c2cc1OC [compound 67, 1-(6,7-dimethoxy-quinazoline-4-yl)-N^3-(6-(3-(4-piperidin-1-ylpiperidin-1-yl)propenyl)pyridin-3-yl)-1H-1,2,4-triazole-3,5-diamine] | < 1000
Cc1csc2c(-n3nc(Nc4ccc(N5CCN(C6CC6)CC5)nc4)nc3N)nc(Cl)nc12 [compound 68, 1-(2-chloro-7-methylthieno [3,2-d]pyrimidin-4-yl)-N^3-(6-(4-cyclopropyl-piperazin-1-yl)pyridin-3-yl)-1H-1,2,4-triazole-3,5-diamine] | < 1000
COc1cc2ncnc(-n3nc(Nc4ccc(C=CCN5CCC(N(C)C)CC5)nc4)nc3N)c2cc1OC [compound 69, 1-(6,7-dimethoxy-quinazoline-4-yl)-N^3-(6-(3-(4-dimethyl-amino-piperidin-1-yl)propenyl)pyridin-3-yl)-1H-1,2,4-triazole-3,5-diamine] | < 1000
Cc1csc2c(-n3nc(Nc4cnc5c(c4)CC(NC4CCCC4)CC5)nc3N)nc(Cl)nc12 (stereo not drawn) [compound 70, 1-(2-chloro-7-methylthieno [3,2-d]pyrimidin-4-yl)-N^3-(6-cyclopentyl-amino-5,6,7,8-tetrahydro-quinolin-3-yl)-1H-1,2,4-triazole-3,5-diamine] | < 1000
Cc1cc(Nc2nc(N)n(-c3nc(Cl)nc4c(C)csc34)n2)cnc1N1CCN(C2CC3CCC2C3)CC1 (stereo not drawn) [compound 71, 1-(2-chloro-7-methylthienò [3,2-d]pyrimidine-4-yl)-N^3-(5-methyl-6-(4-bicyclo[2.2.1]heptan-2-ylpiperazin-1-yl)pyridine-3-yl)-1H-1,2,4-triazole-3,5-diamine] | < 1000
Cc1cc(Nc2nc(N)n(-c3ncnc4c(C)csc34)n2)cnc1N1CCN(C2CC3CCC2C3)CC1 (stereo not drawn) [compound 72, 1-(7-methylthieno [3,2-d]pyrimidine-4-yl)-N^3-(5-methyl-6-(4-bicyclo [2.2.1]heptan-2-ylpiperazin-1-yl)pyridine-3-yl)-1H-1,2,4-triazole-3,5-diamine] | < 1000
Cc1csc2c(-n3nc(Nc4ccc(N5CCN([C@H]6C[C@@H]7CC[C@H]6C7)CC5)nc4)nc3N)ncnc12 [compound 73, 1-(7-methylthieno [3,2-d]pyrimidine-4-yl)-N^3-(6-(4-((1S,2S,4R)-bicyclo[2.2.1]heptan-2-yl)piperazin-1-yl)pyridin-3-yl)-1H-1,2,4-triazole-3,5-diamine] | < 1000
Cc1csc2c(-n3nc(Nc4cnc5c(c4)CCC(N4CCCC4)CC5)nc3N)nc(Cl)nc12 (stereo not drawn) [compound 77, 1-(2-chloro-7-methylthieno [3,2-d]pyrimidine-4-yl)-N^3-(7-(pyrrolidin-1-yl)-6,7,8,9-tetrahydro-5H-cyclohepta[b]pyridin-3-yl)-1H-1,2,4-triazole-3,5-diamine] | < 1000
CCN(CC)C1CCN(CC=Cc2ccc(Nc3nc(N)n(-c4ncnc5cc(OC)c(OC)cc45)n3)cn2)C1 (stereo not drawn) [compound 78, 1-(6,7-dimethoxy-quinazoline-4-yl)-N^3-(6-(3-(3-(diethylamino)pyrrolidin-1-yl)propenyl)pyridin-3-yl)-1H-1,2,4-triazole-3,5-diamine] | < 1000
COc1cc2ncnc(-n3nc(Nc4ccc(C=CCN5CCC(N(C)C)C5)nc4)nc3N)c2cc1OC (stereo not drawn) [compound 79, 1-(6,7-dimethoxy-quinazoline-4-yl)-N^3-(6-(3-(3-(dimethyl-amino)pyrrolidin-1-yl)propenyl)pyridin-3-yl)-1H-1,2,4-triazole-3,5-diamine] | < 1000
COc1cc2ncnc(-n3nc(Nc4ccc(C=CCN5CCCCC5)nc4)nc3N)c2cc1OC [compound 80] | < 1000
COc1cc2ncnc(-n3nc(Nc4ccc(C=CCN5CCC(N6CCCC6)CC5)nc4)nc3N)c2cc1OC [compound 81, 1-(6,7-dimethoxy-quinazoline-4-yl)-N^3-(6-(3-(4-pyrrolidin-1-ylpiperidin-1-yl)propenyl)pyridin-3-yl)-1H-1,2,4-triazole-3,5-diamine] | < 1000
Cc1csc2c(-n3nc(Nc4cnc5c(c4)CC(N4CCCC4)CC5)nc3N)nc(Cl)nc12 (stereo not drawn) [compound 82, 1-(2-chloro-7-methylthieno [3,2-d]pyrimidin-4-yl)-N^3-(6-pyrrolidin-1-yl-5,6,7,8-tetrahydro-quinolin-3-yl)-1H-1,2,4-triazole-3,5-diamine] | < 1000
Cc1csc2c(-n3nc(Nc4ccc(C5CCN(C6CC7CCC6C7)CC5)nc4)nc3N)nc(Cl)nc12 (stereo not drawn) [compound 83, 1-(2-chloro-7-methylthieno [3,2-d]pyrimidine-4-yl)-N^3-(6-(1-bicyclo[2.2.1]heptan-2-ylpiperidin-4-yl)pyridine-3-yl)-1H-1,2,4-triazole-3,5-diamine] | < 1000
Cc1csc2c(-n3nc(Nc4cnc5c(c4)CC(NC4CCN(C)CC4)CC5)nc3N)ncnc12 (stereo not drawn) [compound 84, 1-(7-methylthieno [3,2-d]pyrimidin-4-yl)-N^3-(6-(1-methyl-piperidin-4-ylamino)-5,6,7,8-tetrahydro-quinolin-3-yl)-1H-1,2,4-triazole-3,5-diamine] | < 1000
Cc1csc2c(-n3nc(Nc4cnc5c(c4)CC(N4CCCC4)CC5)nc3N)ncnc12 (stereo not drawn) [compound 85, 1-(7-methylthieno [3,2-d]pyrimidin-4-yl)-N^3-(6-pyrrolidin-1-yl-5,6,7,8-tetrahydro-quinolin-3-yl)-1H-1,2,4-triazole-3,5-diamine] | < 1000
Cc1csc2c(-n3nc(Nc4cnc5c(c4)CN(C4CCN(C)CC4)CC5)nc3N)nc(Cl)nc12 [compound 86, 1-(2-chloro-7-methylthieno [3,2-d]pyrimidine-4-yl)-N^3-(6-(1-methyl-piperidin-4-yl)-5,6,7,8-tetrahydro-1,6-naphthyridin-3-yl)-1H-1,2,4-triazole-3,5-diamine] | < 1000
